Measured values as given in the NIST ThermoML archive (doi:10.1021/je0502546).

Columns and labels:
[1] = 101 kPa, Liquid; for viscosity: Capillary tube (Ostwald / Ubbelohde) method
[2] = refractive index (Na D-line) (dimensionless); conditions: 101.33 kPa, Liquid, Standard Abbe refractometry
[3] = xn = mol fraction of the nth substance listed; conditions: 101 kPa, Liquid; for viscosity: Capillary tube (Ostwald / Ubbelohde) method
[4] = refractive index (Na D-line) (dimensionless); xn = mol fraction of the nth substance listed; conditions: 101 kPa, Liquid, Standard Abbe refractometry

COc1ccccc1 [anisole]
Conditions	mass density, [1] [kg/m3]	refractive index, [2]	viscosity, [1] [mPa·s]
293.15 K	993.8	1.5177	1.084
303.15 K	984.37	1.5124	0.931

COc1ccccc1 [anisole] + CCCCc1ccccc1
x1 = 1
Conditions	mass density, [3] [kg/m3]	refractive index, [4]	viscosity, [3] [mPa·s]
293.15 K	993.8	1.5177	1.084
303.15 K	984.37	1.5124	0.931

COc1ccccc1 [anisole] + CCCc1ccccc1
x1 = 1
Conditions	mass density, [3] [kg/m3]	refractive index, [4]	viscosity, [3] [mPa·s]
293.15 K	993.8	1.5177	1.084
303.15 K	984.37	1.5124	0.931

COc1ccccc1 [anisole] + CCc1ccccc1
Conditions	mass density, [3] [kg/m3]	refractive index, [4]	viscosity, [3] [mPa·s]
293.15 K, x1 = 0.1061	879.21	1.4977	0.691
293.15 K, x1 = 0.2202	892.9	1.5	0.721
293.15 K, x1 = 0.3206	905.19	1.502	0.752
293.15 K, x1 = 0.4278	918.51	1.5041	0.789
293.15 K, x1 = 0.5402	932.69	1.5065	0.834
293.15 K, x1 = 0.6322	944.49	1.5086	0.876
293.15 K, x1 = 0.7282	956.99	1.5108	0.923
293.15 K, x1 = 0.8198	969.11	1.513	0.973
293.15 K, x1 = 0.8994	979.84	1.5153	1.02
293.15 K, x1 = 1	993.8	1.5177	1.084
303.15 K, x1 = 0.1061	870.49	1.4922	0.616
303.15 K, x1 = 0.2202	884.19	1.4944	0.639
303.15 K, x1 = 0.3206	896.45	1.4964	0.662
303.15 K, x1 = 0.4278	909.71	1.4986	0.689
303.15 K, x1 = 0.5402	923.84	1.501	0.725
303.15 K, x1 = 0.6322	935.58	1.5031	0.759
303.15 K, x1 = 0.7282	948.02	1.5053	0.798
303.15 K, x1 = 0.8198	960.07	1.5075	0.841
303.15 K, x1 = 0.8994	970.71	1.5099	0.878
303.15 K, x1 = 1	984.37	1.5124	0.931

COc1ccccc1 [anisole] + Cc1ccccc1
Conditions	mass density, [3] [kg/m3]	refractive index, [4]	viscosity, [3] [mPa·s]
293.15 K, x1 = 0.0966	879.58	1.4993	0.62
293.15 K, x1 = 0.1954	892.47	1.5016	0.656
293.15 K, x1 = 0.2911	904.89	1.5037	0.693
293.15 K, x1 = 0.3936	918.06	1.506	0.736
293.15 K, x1 = 0.5043	932.17	1.5083	0.787
293.15 K, x1 = 0.5985	944.06	1.5102	0.834
293.15 K, x1 = 0.6995	956.7	1.5122	0.89
293.15 K, x1 = 0.7956	968.63	1.514	0.947
293.15 K, x1 = 0.8986	981.29	1.5159	1.013
293.15 K, x1 = 1	993.8	1.5177	1.084
303.15 K, x1 = 0.0966	870.21	1.4936	0.549
303.15 K, x1 = 0.1954	883.13	1.4959	0.579
303.15 K, x1 = 0.2911	895.55	1.4981	0.61
303.15 K, x1 = 0.3936	908.76	1.5003	0.645
303.15 K, x1 = 0.5043	922.89	1.5027	0.687
303.15 K, x1 = 0.5985	934.8	1.5046	0.726
303.15 K, x1 = 0.6995	947.44	1.5067	0.772
303.15 K, x1 = 0.7956	959.38	1.5085	0.818
303.15 K, x1 = 0.8986	972.06	1.5105	0.872
303.15 K, x1 = 1	984.37	1.5124	0.931

COc1ccccc1 [anisole] + c1ccccc1
Conditions	mass density, [3] [kg/m3]	refractive index, [4]	viscosity, [3] [mPa·s]
293.15 K, x1 = 0.0938	889.8	1.5032	0.677
293.15 K, x1 = 0.1955	903.56	1.5053	0.711
293.15 K, x1 = 0.3053	917.74	1.5074	0.751
293.15 K, x1 = 0.3994	929.35	1.5091	0.788
293.15 K, x1 = 0.5	941.27	1.5108	0.829
293.15 K, x1 = 0.6005	952.68	1.5124	0.874
293.15 K, x1 = 0.6996	963.47	1.5139	0.921
293.15 K, x1 = 0.8013	974.11	1.5153	0.972
293.15 K, x1 = 0.8978	983.8	1.5166	1.025
293.15 K, x1 = 1	993.8	1.5177	1.084
303.15 K, x1 = 0.0938	881.47	1.4967	0.587
303.15 K, x1 = 0.1955	895.16	1.4989	0.616
303.15 K, x1 = 0.3053	909.24	1.5011	0.649
303.15 K, x1 = 0.3994	920.76	1.5028	0.679
303.15 K, x1 = 0.5	932.57	1.5046	0.714
303.15 K, x1 = 0.6005	943.88	1.5064	0.751
303.15 K, x1 = 0.6996	954.56	1.508	0.791
303.15 K, x1 = 0.8013	965.08	1.5096	0.836
303.15 K, x1 = 0.8978	974.66	1.511	0.88
303.15 K, x1 = 1	984.37	1.5124	0.931

c1ccccc1 [benzene]
Conditions	mass density, [1] [kg/m3]	refractive index, [2]	viscosity, [1] [mPa·s]
293.15 K	877.43	1.5011	0.647
303.15 K	868.26	1.4947	0.563

c1ccccc1 [benzene] + COc1ccccc1
x2 = 0
Conditions	mass density, [3] [kg/m3]	refractive index, [4]	viscosity, [3] [mPa·s]
293.15 K	877.43	1.5011	0.647
303.15 K	868.26	1.4947	0.563

CCCCc1ccccc1 [butylbenzene]
Conditions	mass density, [1] [kg/m3]	refractive index, [2]	viscosity, [1] [mPa·s]
293.15 K	861.26	1.4895	1.034
303.15 K	852.23	1.4845	0.893

CCCCc1ccccc1 [butylbenzene] + COc1ccccc1
Conditions	mass density, [3] [kg/m3]	refractive index, [4]	viscosity, [3] [mPa·s]
293.15 K, x2 = 0	861.26	1.4895	1.034
293.15 K, x2 = 0.1238	873.01	1.4923	1.005
293.15 K, x2 = 0.225	884.01	1.4948	0.985
293.15 K, x2 = 0.3541	898.83	1.498	0.971
293.15 K, x2 = 0.48	914.4	1.5014	0.965
293.15 K, x2 = 0.581	927.77	1.5042	0.97
293.15 K, x2 = 0.67	940.23	1.5068	0.983
293.15 K, x2 = 0.7672	954.65	1.5097	1.002
293.15 K, x2 = 0.8483	967.5	1.5123	1.027
293.15 K, x2 = 0.9201	979.53	1.5148	1.052
303.15 K, x2 = 0	852.23	1.4845	0.893
303.15 K, x2 = 0.1238	865.04	1.4872	0.872
303.15 K, x2 = 0.225	875.92	1.4896	0.855
303.15 K, x2 = 0.3541	890.71	1.4927	0.841
303.15 K, x2 = 0.48	906.13	1.4961	0.837
303.15 K, x2 = 0.581	919.36	1.4989	0.842
303.15 K, x2 = 0.67	931.73	1.5014	0.851
303.15 K, x2 = 0.7672	946.15	1.5043	0.867
303.15 K, x2 = 0.8483	958.84	1.5068	0.885
303.15 K, x2 = 0.9201	970.6	1.5093	0.905

CCc1ccccc1 [ethylbenzene]
Conditions	mass density, [1] [kg/m3]	refractive index, [2]	viscosity, [1] [mPa·s]
293.15 K	866.95	1.4957	0.669
303.15 K	858.01	1.4902	0.596

CCc1ccccc1 [ethylbenzene] + COc1ccccc1
x2 = 0
Conditions	mass density, [3] [kg/m3]	refractive index, [4]	viscosity, [3] [mPa·s]
293.15 K	866.95	1.4957	0.669
303.15 K	858.01	1.4902	0.596

CCCc1ccccc1 [propylbenzene]
Conditions	mass density, [1] [kg/m3]	refractive index, [2]	viscosity, [1] [mPa·s]
293.15 K	863.13	1.4916	0.855
303.15 K	854.71	1.4858	0.744

CCCc1ccccc1 [propylbenzene] + COc1ccccc1
Conditions	mass density, [3] [kg/m3]	refractive index, [4]	viscosity, [3] [mPa·s]
293.15 K, x2 = 0	863.13	1.4916	0.855
293.15 K, x2 = 0.1216	876.73	1.4944	0.857
293.15 K, x2 = 0.2422	890.73	1.4972	0.862
293.15 K, x2 = 0.3455	903.18	1.4996	0.874
293.15 K, x2 = 0.4531	916.62	1.5023	0.892
293.15 K, x2 = 0.5658	931.23	1.5051	0.915
293.15 K, x2 = 0.6574	943.52	1.5076	0.94
293.15 K, x2 = 0.7486	956.19	1.5101	0.971
293.15 K, x2 = 0.8349	968.57	1.5126	1.005
293.15 K, x2 = 0.916	980.65	1.515	1.042
303.15 K, x2 = 0	854.71	1.4858	0.744
303.15 K, x2 = 0.1216	868.36	1.4886	0.748
303.15 K, x2 = 0.2422	882.36	1.4914	0.752
303.15 K, x2 = 0.3455	894.78	1.4939	0.758
303.15 K, x2 = 0.4531	908.15	1.4966	0.77
303.15 K, x2 = 0.5658	922.67	1.4995	0.79
303.15 K, x2 = 0.6574	934.9	1.5019	0.812
303.15 K, x2 = 0.7486	947.46	1.5045	0.84
303.15 K, x2 = 0.8349	959.71	1.507	0.87
303.15 K, x2 = 0.916	971.62	1.5095	0.899

Cc1ccccc1 [toluene]
Conditions	mass density, [1] [kg/m3]	refractive index, [2]	viscosity, [1] [mPa·s]
293.15 K	866.88	1.4962	0.588
303.15 K	857.46	1.4914	0.523

Cc1ccccc1 [toluene] + COc1ccccc1
x2 = 0
Conditions	mass density, [3] [kg/m3]	refractive index, [4]	viscosity, [3] [mPa·s]
293.15 K	866.88	1.4962	0.588
303.15 K	857.46	1.4914	0.523
